“Also recorded” adds a separate entry of the source.

These results are taken from US10426755B2, “Methods for inhibiting cancer cells” (Chang Gung Memorial Hospital, Chiayi, priority 2015, dated 2019).

Common to all, as to assay type: cell-based
In test [1] the test system is CCL2 in RAW 264.7 cells/DU145 co-culture. As to the kind of experiment: CCL2 ELISA, RAW 264.7/DU145 co-culture. To be noted: DT-treated macrophage/DU145 co-culture medium; 5 or 10 μM DT, 24 hours; FIG. 15 (c). The protocol:
As illustrated in Example 10, the production of CCL2 was inhibited by DT in both prostate cancer cells and macrophage, the effect of DT on monocyte/cancer cell co-culture and macrophage/cancer cell co-culture was examined using the invasion assay described in Example 9. • (a) THP1 monocytes, Raw264.7 macrophage, monocyte/prostate cancer co-culture and macrophage/prostate cancer co-culture were treated with a vehicle (DMSO), 5 or 10 μM DT for 24 hours, the cultured medium was collected and placed into the lower chamber of a transwell plate. • (b) Prostate cancer cells (PC3, DU145 and 22RV1) were placed in the cell invasion assay). The level of CCL2 in the invasion assay was measured by ELIZA method.
(ELISA stands for enzyme-linked immunosorbent assay.)

The test system of test [2] is prostate cancer cell lines (LNCaP, hormone therapy-resistant PC3, DU145 and 22RV1). As to the kind of experiment: XTT proliferation assay, prostate cancer cells. To be noted: 1, 5 and 10 μM DT, 1-2 days, XTT absorbance 492 nm; FIG. 1. The protocol: An in vitro evaluation of the effect of dihydroisotanshinone I (DT) on the following prostate cancer cell lines was performed: LNCaP (with lymph node metastasis), hormone therapy resistant PC3 (with bone metastasis), 22RV1, DU145 (with brain metastasis), were obtained from Bioresource Collection and Research Center, Taiwan and DT was purchased from ChemFaces Co., Ltd., China.
(§1) The prostate cancer cells were plated at a density of 10^3 or 3×10^3 per well, in a 96-well plate, in a medium containing 10% Fetal bovine serum (FBS) (Gibco®, commercially available from Life Technologies, USA). Once the prostate cancer cells were attached to the culture dish, the 10% FBS medium was replaced with a second 10% FBS medium and each of the prostate cancer cell line was treated with 1, 5, and 10 μM of DT respectively for 1-2 days. The absorbance was measured using XTT assay kit (commercially available from Roche, Switzerland) at 492 nm using an ELISA reader (Bio-Rad Laboratories, USA).

The test system of test [3] is prostate cancer cells (hormone therapy-resistant PC3, DU145 and LNCaP). The experiment in a line: Annexin V/PI flow cytometry apoptosis/necrosis, prostate cancer cells. To be noted: 10 or 20 μM DT, 24-48 hours, vs PBS and DMSO vehicle (CT); time dependent; FIG. 6. The protocol: The effect of DT on metastatic prostate cancer cells (hormone therapy-resistant PC3, DU145 and LNCaP); lung cancer cells (A549 and chemotherapy-resistant/metastatic H460); and breast cancer cells (MCF-7, tamoxifen-resistant MCF7 and MDA MB-231) was assessed.
1×10^6 Cancer cells were seeded in a 100-mm plate and cultured overnight. The cancer cells were treated with phosphate buffered saline (PBS), a Dimethyl sulfoxide (DMSO) vehicle (CT), 10 or 20 μM of DT for 24-48 hours, then collected and washed with cold PBS. The supernatant was removed by centrifugation and resuspended in FITC Annexin V binding buffer and Propidium iodide (PI) (Annexin V-FITC Apoptosis Detection Kit, commercially available from Strong Biotech Corporation, Taiwan). The suspended cancer cells were stained at room temperature, in the dark for 15 min and analyzed by the BD FACSCanto™ flow cytometry (Becton Dickinson, USA). The amount of early apoptosis, late apoptosis, and necrosis was measured as the percentage of annexin-V positive/PI negative (Q4 in the FACS images), annexin-V positive/PI positive (Q2 in the FACS images), and annexin-V negative/PI positive cells (Q1 in the FACS images), respectively. Normal cells are in […] of the FACS images.
In general terms: A flow cytometer gives signals particle by particle.

Test [4] has as its system γ-H2AX and phosphorylated-ATM in A549 and chemotherapy-resistant/metastatic H460 lung cancer cells. As to the kind of experiment: Western blot of DNA damage response proteins, lung cancer cells. The following applies: various concentrations of DT, vs control vehicle; dose dependent; FIG. 10 (a)-(b). The protocol: An in vitro evaluation on the damage effect of DT on cancer cells was performed, using prostate cancer cells (metastatic LNCaP and metastatic DU145, hormone therapy resistant and metastatic PC3 and 22RV1) and lung cancer cells (A549 and chemotherapy-resistant/metastatic H460).
Cancer cells were treated with a control vehicle, dihydrotestosterone (DHT), and various concentrations of DT between 6 to 24 hours. Cellular extracts of treated cancer cells were analyzed using Western Blot.
A general note: A western blot detects proteins with antibodies after separation by electrophoresis.

Test [5] has as its system colorectal cancer cells (chemotherapy resistant HCT116). As to the kind of experiment: Cell migration (wound-healing) assay, colorectal cancer cells. To be noted: DT vs control vehicle, 24 h, dose dependent; FIG. 13 (b). The protocol:
An in vitro evaluation of the effect of DT on lung cancer cells (A549 and chemotherapy resistant/metastatic H460), prostate cancer cells (metastatic DU145) and colorectal cancer cells (chemotherapy resistant HCT116) invasion and migration was performed, using cell invasion assay and cell migration assay.
Cell Migration Assay: In vitro wound-healing assay was used to assess cell motility in two dimensions. Cancer cells were plated overnight to achieve a subconfluent cell layer in 24-well plates. A scratch was made on the cell layer with a micropipette tip, and cultures were washed twice with serum-free medium to remove floating cells. Cancer cells were incubated in a culture medium containing DT or the control vehicle. Wound healing was visualized by comparing photographs taken at the time of adding the DT/control vehicle and 24 h later. Three experiments were done in quadruplicates.

Test [6] has as its system skp2 and downstream genes in HCT116 colon cancer cells. As to the kind of experiment: skp2 and downstream gene mRNA expression, colon cancer cells. The following applies: various concentrations of DT vs DMSO, FIG. 10 (g), (i). The protocol:
It has been reported that skp2 plays an important role in the metastasis of cancer cells. An in vitro evaluation of the effect of DT on prostate cancer cell metastasis was performed, by measuring the mRNA expression of skp2 in the following prostate cancer cell lines: meatstatic DU145 cells (Panels i-j of FIG. 9), hormone therapy resistant and metastatic PC3 cells (Panel h of FIG. 9), and 22RV1 cells (Panels k-l of FIG. 9), A549 lung cancer cells (Panels (c)-(e) of FIG. 10), chemotherapy-resistant/metastatic H460 lung cancer cells (Panels (d) and (f) of FIG. 10), HCT116 colon cancer cells (Panels (g) and (i) of FIG. 10) and MCF7-tamoxifen resistant breast cancer cells (Panels (h) and (j) of FIG. 10) […].
The cancer cells were treated with DMSO and various concentrations of DT.

The test system of test [7] is ARK1 endometrial cancer cells. As to the kind of experiment: XTT proliferation assay, ARK1. To be noted: 5, 10 and 20 μM DT, 1-2 days, FIG. 4. The protocol: as §1
An in vitro evaluation of the effect of DT on endometrial cancer cells was performed. The endometrial cancer cell lines, ARK1 and ARK2, were provided by Dr. T H Wang at Chang Gung Meorial Hospital, Linkou, Taiwan)
The endometrial cancer cells were cultured and plated according to the steps in Example 1 and each of the endometrial cancer cell line was treated with 0 (control), 5, 10 and 20 μM of DT, respectively for 1-2 days. The absorbance was measured using XTT assay kit at 492 nm using an ELISA reader.

With `Cc1cccc2c3c(ccc12)C(=O)C1=C(OCC1C)C3=O` (stereo not shown) [DT, dihydroisotanshinone I], in test [1], the “concentration of CCL2” value is given as “significantly reduced”. The “inhibition of prostate cancer cell proliferation” value in test [2] is “inhibits prostate cancer cell proliferation in a dose dependent fashion”. Also, the “early apoptosis, late apoptosis and necrosis, prostate cancer cells” value in test [3] was “more early apoptosis, late apoptosis and necrosis; also recorded: induced prostate cancer cell apoptosis/necrosis”. Besides, the “DNA damage response proteins (γ-H2AX and phosphorylated-ATM), lung cancer cells” value in test [4] is “increase in DNA damage response proteins (γ-H2AX and phosphorylated-ATM); also recorded: increased the DNA damage response proteins (γ-H2AX, phosphorylated-ATM)”. In addition, the “colorectal cancer cell migration into the wounded area” value in test [5] is “reduced chemotherapy resistant colorectal cancer cell migration; also recorded: reduced colon cancer cell migration into the wounded area”. Further, in test [6], the “mRNA expression of skp2 and its downstream genes, colorectal cancer” value was “effectively inhibit mRNA expression of skp2 and its downstream genes; also recorded: reduces skps and its downstream genes, MMP2, MMP9 and E-cadherin”. In test [7], the “inhibition of ARK1 endometrial cancer cells” value is “effective in inhibiting ARK1 and ARK2 endometrial cancer cells”.
